Source: article PMC3908613 (Bioscience Reports, 2014)

What was measured:
Rsks = conditions: cited from earlier work
NIH3T3 cells = experiment: Immunoblot of PKB phosphorylation in EGF-stimulated NIH3T3 cells; assay type: cell-based; conditions: EGF 100 ng/ml, 4 μM D1870
Protocol: (§1) BMDC (1.5×10^6 cells) were incubated in 6-well plates in RPMI supplemented with 0.3% FCS for 5 h at 37°C. […] NIH3T3 cells (2×10^4) were plated in 6-well plates for 48 h at 37°C. The cells were deprived of serum for 8 h in DMEM supplemented with 2 mg/ml BSA (Sigma) and then stimulated with 100 ng/ml EGF (epidermal growth factor; Peprotech) for 5 min at 37°C.
(§2) Cells were washed in cold PBS, lysed on ice for 10 min in lysis buffer (1% Triton X-100 containing 50 mM Tris–HCl (pH 7.5), 150 mM NaCl, 1 mM EGTA, 1 mM EDTA, 10 mM NaF, 1 mM sodium orthovanadate and 5 mM sodium pyrophosphate and protease inhibitors (Roche)) and centrifuged for 10 min at 20000 g at 4°C.

PLK1 [1] = biological target: T1, PLK1 (Mus musculus, UniProt Q07832); experiment: Desthiobiotin-ATP probe capture on streptavidin beads, Western blot; assay type: binding, C57BL/6 mice; conditions: 10 μM inhibitor, DC lysate
T1 construct: endogenous in cells; host or cells: mouse spleen-derived dendritic cells (SDC), lysate
T1 sequence (Q07832 whole entry): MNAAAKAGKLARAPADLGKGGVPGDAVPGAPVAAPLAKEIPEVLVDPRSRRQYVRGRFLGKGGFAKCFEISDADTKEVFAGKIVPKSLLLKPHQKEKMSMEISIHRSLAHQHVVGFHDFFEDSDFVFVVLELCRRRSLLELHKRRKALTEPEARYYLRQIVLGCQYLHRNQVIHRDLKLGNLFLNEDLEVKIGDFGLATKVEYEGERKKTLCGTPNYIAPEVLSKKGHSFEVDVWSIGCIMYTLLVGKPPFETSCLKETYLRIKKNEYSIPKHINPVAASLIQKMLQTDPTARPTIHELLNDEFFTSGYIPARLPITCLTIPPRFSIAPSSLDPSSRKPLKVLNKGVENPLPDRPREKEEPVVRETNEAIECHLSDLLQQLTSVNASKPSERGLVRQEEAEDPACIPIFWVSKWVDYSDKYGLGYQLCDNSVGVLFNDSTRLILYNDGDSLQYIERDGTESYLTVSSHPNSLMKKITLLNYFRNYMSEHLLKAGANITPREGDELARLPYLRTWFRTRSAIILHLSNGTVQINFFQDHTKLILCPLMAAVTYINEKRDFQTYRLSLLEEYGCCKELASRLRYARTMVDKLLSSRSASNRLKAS
Protocol: SDC were cultured for at least 14 days in RPMI (without arginine and lysine, custom-made by Biosera) containing 10% dialysed FCS (Hyclone) supplemented with 84 mg/l of L-arginine (Sigma) and 40 mg/l L-lysine (Sigma) for the ‘light’ medium or 84 mg/l of L-arginine ^13C6 or ^13C10 and 40 mg/l L-lysine ^13C6 (Cambridge Isotope Laboratory) for the ‘heavy’ medium. Equal numbers (2×10^7) of ‘light’ or ‘heavy’ labelled SDCs were incubated in RPMI containing 0.5% FCS for 3 h in 15 cm dishes. The cells were lysed in the lysis buffer provided in the kit (Pierce). […] Labelling with the desthiobiotin ATP probe, and precipitation with streptavidin beads were performed according to the manufacturer's instructions (Pierce kinase enrichment kit or ActivX™). Equal amount of streptavidin precipitates were separated by electrophoresis as described above and probed with antibodies against Rsk2, Lok (Bethyl), Slk (Bethyl), PLK1 (Calbiochem), p38, Erk2 and Mst1 (from Cell Signaling).

BMDC [2] = experiment: Cytokine production by LPS-stimulated BMDC (ELISA); assay type: cell-based, C57BL/6 mice
Protocol: DCs were generated from the bone marrow or the spleen of C57BL/6 mice as previously described. Briefly, bone marrow cells were cultured for 7 days at 37°C, 5% (v/v) CO2 in complete RPMI medium supplemented with 10 ng/ml recombinant granulocyte-macrophage colony-stimulating factor (GM-CSF; Peprotech). Spleen cells were cultured for 14 days at 37°C, 5% CO2 in complete RPMI containing 10 ng/ml GM-CSF and 1 ng/ml TGFβ (transforming growth factor-β; R&D Systems). NIH3T3 cells (European Cell Culture Collection) were cultured in DMEM (Dulbecco's modified Eagle's medium) supplemented with glutamine, penicillin, streptomycin and 10% (v/v) calf serum (Invitrogen). […] The amounts of TNFα (tumour necrosis factor α), IL6 (interleukin 6) and IL10 in the supernatant were measured using ELISA kits specific for each cytokine (TNFα, IL6; Peprotech, IL10; R&D Systems).

PLK1 [3] = conditions: cited from earlier work
BMDC [4] = experiment: Immunoblot of phosphorylated signalling proteins in stimulated BMDC; assay type: cell-based, C57BL/6 mice
Protocol: as §1, §2
BMDC (5×10^6 cells) were stimulated as described above. Lysates were pre-cleared with protein G Sepharose beads (Roche) for 30 min at 4°C. Paxillin was immunoprecipitated with 2 μg of anti-paxillin (Millipore) or with anti-IgG antibodies (Santa Cruz Biotechnology) for 1 h at 4°C and then incubated with 15 μl protein G Sepharose beads for 1 h at 4°C. Beads were washed four times with lysis buffer and paxillin was eluted with NuPage sample buffer (Invitrogen). The immunoprecipitated proteins were separated by electrophoresis on a 10% (w/v) NuPage gel and transferred onto a nitrocellulose membrane. The membrane was probed with anti-phospho Ser250-paxilin (kind gift of Luc Sabourin, McMaster University, Canada) or anti-paxillin antibodies.

[5] = LPS 50 ng/ml, 18 h, increasing concentrations of inhibitor

Question: For `CC(C)CCN1c2nc(Nc3cc(F)c(O)c(F)c3)ncc2N(C)C(=O)C1C` (stereo not drawn) [D1870, BI-D1870], which IC50 (Rsks) is on record?
Answer: 10 to 30 nM

Question: And the PKB phosphorylation (NIH3T3 cells)?
Answer: not affected

Question: And the “Recovery of PLK1 on streptavidin beads” value (PLK1 [1])?
Answer: blocked

Question: And the IL6 secretion (BMDC [2]; [5])?
Answer: dose-dependent inhibition

Question: And the IL10 secretion (BMDC [2]; [5])?
Answer: dose-dependent inhibition

Question: What about the TNFα production (BMDC [2]; [5]) of the same compound?
Answer: not by D1870

Question: What about the “mRNA levels of IL6 and IL10” value (BMDC [2]; after 1 or 3 h of LPS stimulation, data not shown) of the same compound?
Answer: rapidly inhibited

Question: And the “Concentration blocking phosphorylation of Bad (Ser112)” value (BMDC [4]; LPS 50 ng/ml, 30 min)?
Answer: […]

Question: And the “Erk1/2, p38 or JNK1/2 phosphorylation” value (BMDC [4]; LPS 50 ng/ml, 30 min)?
Answer: Neither inhibitor had any effect

Question: And the GSK3α/β phosphorylation (BMDC [4]; LPS 50 ng/ml, 30 min)?
Answer: more potent

Question: What about the “PKB phosphorylation at Ser473 and Thr308” value (BMDC [4]; LPS 50 ng/ml, 30 min) of the same compound?
Answer: complete block

Question: What about the “Phosphorylation of MSK1 and MK2” value (BMDC [4]; LPS 50 ng/ml, 30 min) of the same compound?
Answer: not affected

Question: What about the “phosphorylation of IκBα” value (BMDC [4]; LPS 50 ng/ml, 30 min) of the same compound?
Answer: neither D1870 nor BIX affected

Question: And the “phosphorylation of ERM proteins” value (BMDC [4]; LPS, 30 min)?
Answer: substantial decrease

Question: And the “phosphorylation of paxillin on Ser250” value (BMDC [4]; LPS, 30 min, paxillin immunoprecipitated)?
Answer: prevented its phosphorylation at low concentrations

Question: What about the PKB phosphorylation (BMDC [4]; MIP1α 100 ng/ml, 5 min, 4 μM D1870) of the same compound?
Answer: impaired
